Our source for the IC50 values is patent US8865894B2, “Oxazolidin-2-one compounds and uses thereof” (Novartis AG, priority 2012, dated 2014).

The target in this experiment is T1, human PI3Kdelta p110 catalytic subunit (Rat-1 pBABEpuro Myr-HA-hp110 delta) (Homo sapiens, UniProt O00329).
T1 construct: Myr (myristoylation signal) (N); HA (N); expressed in transfected cells; host or cells: Rat-1
The experiment in a line: Cellular assay PI3Kdelta (p-Akt(S473) SureFire, Rat-1_PI3Kdelta cells). Format: cell-based. To be noted: 1 h compound treatment, read-out: Rat1-PI3Kd/ IC50. An excerpt: AlphaScreen (Amplified Luminescent Proximity Homogeneous Assay, ALPHA, Perkin Elmer) is a non-radioactive bead-based proximity assay technology to study biomolecular interactions in a homogenous microtiter plate format. The brand name SureFire denotes AlphaScreen assays that are adapted to quantify the phosphorylation of endogenous cellular proteins in cell lysates, by using matched antibody pairs, which consist of an anti-phospho-kinase and an anti-kinase antibody. The assay allows characterization of kinase signaling in cells as well as measurement of kinase inhibitor effects. The AlphaScreen technology provides several advantages over standard assay techniques such as ELISA, as it avoids time-consuming washing procedures and reduces plate handling. Furthermore, it is miniaturizable at least to a 384-well format and provides sensitivity down to the femtomolar range, dependent on the affinity of the antibodies included in the individual AlphaScreen SureFire assay kit. High sensitivity is reached by an intrinsic amplification mechanism, which involves production of singlet oxygen molecules. SureFire assay kits are commercially available for specific targets and include pairs of validated antibodies (PerkinElmer). This report describes common procedures applied for AlphaScreen SureFire assays and respective semi-automated steps for routine kinase inhibitor profiling in cell-based assays.
The Rat-1 cell lines stably overexpressing activated PI3K class I isoforms Rat-1 pBABEpuro Myr-HA-hp110 delta (Rat-1_PI3Kdelta) and Rat-1 pBABEpuro Myr-HA-hp110alpha (Rat-1_PI3Kalpha) and Rat-1 pBABEpuro Myr-HA-hp110 beta (Rat-1_PI3beta) were prepared as described (Maira S M, Stauffer F, Brueggen J, Furet P, Schnell C, Fritsch C, Brachmann S, Chène P, de Pover A, Schoemaker K, Fabbro D, Gabriel D, Simonen M, Murphy L, Finan P, Sellers W, García-Echeverría C (2008), Mol Cancer Ther. 7:1851-63 and Maira S M, Pecchi S, Brueggen J, Huh K, Schnell C, Fritsch C, Nagel T, Wiesmann M, Brachmann S, Dorsch M, Chène P, Schoemaker K, De Pover A, Menezes D, Fabbro D, Sellers W, García-Echeverría C, Voliva C F (2011), Mol. Cancer Ther., accepted). All cell lines were cultivated in complete growth medium (DMEM high glucose, 10% (v/v) fetal bovine serum, 1% (v/v) MEM NEAA, 10 mM HEPES, 2 mM L-glutamine, puromycin (10 μg/mL for Rat-1_PI3Kdelta and Rat-1_PI3Kalpha, 4 ug/mL for Rat-1_PI3beta), 1% (v/v) Pen/Strep) to 90% confluency at 37° C./5% CO2/90% humidity in a humidified CO2 incubator and were split twice a week.
The following materials were used for p-AKT(S473) detection in Rat-1 cell lysates: Dulbecco's modified Eagle's medium (DMEM) high glucose (Gibco Invitrogen, Basel, Switzerland, Cat. No. 41965), Heat Inactivated Fetal Bovine Serum, Qualified (HI FBS; Gibco Invitrogen, Basel, Switzerland, Lot. No. 16140), MEM non essential amino acids (NEAA; Gibco Invitrogen, Basel, Switzerland, Cat. No. 11140), HEPES (Gibco Invitrogen, Basel, Switzerland, Cat. No. 15630), Penicillin/Streptomycin (Pen/Strep, 100×; Gibco Invitrogen, Basel, Switzerland, Cat. No. 15140-122), L-Glutamine (Gibco Invitrogen, Basel, Switzerland, Cat. No. 25030), Puromycin (Sigma Aldrich, Buchs, Switzerland, Cat. No. P9620), DMSO (MERCK, Dietikon, Switzerland, Cat. No. 8.02912.2500), H2O, MilliQ-H2O unless otherwise stated (MILLIPORE QGARDOOR1, Millipore, Zug, Switzerland), Bovine serum albumine (BSA; Sigma Aldrich, Buchs, Switzerland Cat. No. A8412), SureFire p-Akt 1/2 (Ser473) Assay Kit (PerkinElmer, Schwerzenbach, Switzerland, Cat. No. TGRAS50K).
The p-Akt(S473) SureFire assay measures the phosphorylation of endogenous cellular Akt 1/2 at Ser473 in cell lysates. Using Rat-1 cells stably expressing myr-HA-tagged versions of the human PI3Kdelta, PI3Kalpha, or PI3Kbeta p110 catalytic subunit isoforms, the assay was developed as a two-plate protocol in a 384-well format.

T1 sequence (O00329 whole entry): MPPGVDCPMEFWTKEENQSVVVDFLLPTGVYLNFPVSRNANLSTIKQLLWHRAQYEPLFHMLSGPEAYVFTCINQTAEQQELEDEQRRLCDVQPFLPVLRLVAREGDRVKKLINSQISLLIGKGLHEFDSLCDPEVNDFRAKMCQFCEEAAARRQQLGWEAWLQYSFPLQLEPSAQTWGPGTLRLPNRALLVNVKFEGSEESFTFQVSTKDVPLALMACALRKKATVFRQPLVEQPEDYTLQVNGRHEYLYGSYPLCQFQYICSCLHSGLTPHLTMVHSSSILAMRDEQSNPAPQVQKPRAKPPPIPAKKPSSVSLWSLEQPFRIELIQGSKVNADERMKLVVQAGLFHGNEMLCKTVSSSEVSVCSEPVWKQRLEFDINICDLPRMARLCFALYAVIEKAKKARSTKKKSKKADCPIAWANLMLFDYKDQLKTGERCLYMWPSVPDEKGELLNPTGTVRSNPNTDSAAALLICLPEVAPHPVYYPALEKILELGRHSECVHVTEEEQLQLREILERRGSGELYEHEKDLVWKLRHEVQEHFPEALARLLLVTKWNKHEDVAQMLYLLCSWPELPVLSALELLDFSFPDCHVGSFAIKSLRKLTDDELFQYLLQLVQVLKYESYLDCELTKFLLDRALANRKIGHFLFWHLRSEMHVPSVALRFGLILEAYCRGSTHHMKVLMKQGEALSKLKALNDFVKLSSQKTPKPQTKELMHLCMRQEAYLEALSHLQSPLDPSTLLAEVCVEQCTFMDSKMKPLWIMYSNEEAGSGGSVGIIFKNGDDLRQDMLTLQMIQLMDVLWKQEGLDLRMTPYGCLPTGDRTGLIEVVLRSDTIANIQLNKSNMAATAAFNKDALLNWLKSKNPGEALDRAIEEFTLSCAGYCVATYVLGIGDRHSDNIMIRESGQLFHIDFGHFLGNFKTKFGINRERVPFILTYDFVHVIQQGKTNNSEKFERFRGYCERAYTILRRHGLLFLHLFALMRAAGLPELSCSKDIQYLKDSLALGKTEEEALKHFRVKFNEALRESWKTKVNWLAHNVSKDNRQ
T1 sequence (Q63787 whole entry partner): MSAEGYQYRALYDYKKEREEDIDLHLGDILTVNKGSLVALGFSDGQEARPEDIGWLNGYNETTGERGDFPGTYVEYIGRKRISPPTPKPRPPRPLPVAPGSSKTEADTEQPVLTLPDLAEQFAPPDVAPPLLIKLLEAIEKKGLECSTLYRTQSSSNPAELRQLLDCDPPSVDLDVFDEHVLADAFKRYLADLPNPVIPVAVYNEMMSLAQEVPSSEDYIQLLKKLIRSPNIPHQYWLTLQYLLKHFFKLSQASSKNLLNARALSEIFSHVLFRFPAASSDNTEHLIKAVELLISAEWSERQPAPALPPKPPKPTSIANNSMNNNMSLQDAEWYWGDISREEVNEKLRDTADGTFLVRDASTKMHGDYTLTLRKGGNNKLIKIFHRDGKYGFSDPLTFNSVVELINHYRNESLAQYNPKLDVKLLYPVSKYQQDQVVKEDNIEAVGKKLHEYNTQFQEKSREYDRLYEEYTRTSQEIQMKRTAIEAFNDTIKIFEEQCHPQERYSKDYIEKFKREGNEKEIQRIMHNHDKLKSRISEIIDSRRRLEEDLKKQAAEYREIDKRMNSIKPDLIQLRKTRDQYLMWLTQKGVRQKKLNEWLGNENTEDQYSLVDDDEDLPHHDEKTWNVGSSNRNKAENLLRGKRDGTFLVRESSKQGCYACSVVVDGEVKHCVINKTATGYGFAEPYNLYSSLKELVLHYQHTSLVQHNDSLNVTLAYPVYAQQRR

For `C[C@H]1[C@@H](CO)OC(=O)N1c1cc(-c2cnc(N)nc2C(F)(F)F)nc(N2CCOCC2)n1` [Example 19, (4S,5S)-3-(2′-Amino-2-morpholin-4-yl-4′-trifluoromethyl-[4,5′]bipyrimidinyl-6-yl)-5-hydroxymethyl-4-methyl-oxazolidin-2-one], the IC50 is 34 nM. To `Nc1ncc(-c2cc(N3C[C@H](CO)OC3=O)nc(N3CCOCC3)n2)c(C(F)(F)F)n1` [Example 20, (R)-3-(2′-Amino-2-morpholin-4-yl-4′-trifluoromethyl-[4,5′]bipyrimidinyl-6-yl)-5-hydroxymethyl-oxazolidin-2-one] belongs 111 nM.

Turning to `Nc1ncc(-c2cc(N3C(=O)O[C@H]4COC[C@H]43)nc(N3CCOCC3)n2)c(C(F)(F)F)n1` [Example 21, (3aR,6aR)-3-(2′-amino-2-morpholino-4′-(trifluoromethyl)-[4,5′-bipyrimidin]-6-yl)-tetrahydrofuro[3,4-d]oxazol-2(3H)-one], the IC50 came to 61 nM. The result for `C[C@H]1[C@@H](CCO)OC(=O)N1c1cc(-c2cnc(N)nc2C(F)(F)F)nc(N2CCOCC2)n1` [Example 23, (4S,5R)-3-(2′-Amino-2-morpholino-4′-(trifluoromethyl)-[4,5′-bipyrimidin]-6-yl)-5-(2-hydroxyethyl)-4-methyloxazolidin-2-one] reads 16 nM.
